{
  "source": "patent US20130011376A1",
  "about": "“Methods for Enhancing Natural Killer Cell Proliferation and Activity” (GAMIDA CELL LTD., priority 2009, published 2013)",
  "key": {"[1]": {"tested_on": "cord blood NK cells (CD56+)", "test": "Ex-vivo proliferation of purified cord blood CD56+ NK cells cultured with cytokines and nicotinamide", "assay_type": "cell-based, human", "conditions": "for proliferation of NK cells relative to growth factors (cytokines) alone: 14 days", "experimental": "Cells were obtained from umbilical cord blood after normal full-term delivery (informed consent was given). Samples were collected and frozen within 24 hours postpartum. Briefly, cord blood was collected by gravity from delivered placentas, the leukocyte-rich fraction was separated by density gradient centrifugation, cells mixed with DMSO (10%) and then frozen at −80° C. Prior to use, the cells were thawed in Dextran buffer (Sigma, St. Louis, Mo., USA) containing 2.5% human serum albumin (HSA) (Bayer Corp. Elkhart, Ind., USA), and the cryoprotectant removed.\nCord blood (CB), bone marrow (BM) or peripheral blood (PB) cells were layered on a Ficoll-Hypaque gradient (1.077 g/mL; Sigma), and centrifuged at 800×g for 30 minutes for separation of the mononuclear cells. The cells in the interface layer were collected and washed three times in phosphate-buffered saline (PBS) (Biological Industries, Israel) containing 0.5% HSA. To purify the CD56+ cells, the mononuclear cell fraction was subjected to two cycles of immunomagnetic bead separation, using a “MiniMACS or CliniMACS CD56 progenitor cell isolation kit” (Miltenyi Biotec Bergisch, Gladbach, Germany), according to the manufacturer's recommendations. Briefly, CD56+ cells are reacted with CD56+ specific magnetic immunobeads, separated and with a magnetic separator, and purified from unbound cells by washing. The purity of the CD56+ population thus obtained is approximately 92%, as evaluated by flow cytometry.\n(§1) 2. Purified CD56+ or CD56+CD3− cells from total nuclear or mononuclear cells or from the fraction depleted from CD34+ or CD133+ cells were cultured in culture bags, T-Flasks or 24 well plates at a concentration of 1-100×10^4 cells/ml in MEMα/10% FCS or CellGro SCGM (Cell Genix)/5% Human Serum/LiforCell® FBS Replacement (Lifeblood Products) containing the following human recombinant cytokines:, interleukin-2 (IL-2) (5-50 ng/ml), interleukin-15 (IL-15), FLT-3 or SCF or FLT3 and SCF or IL-2 and IL-15 or IL-2 only (Perpo Tech, Inc., Rocky Hill, N.J., USA), with or without nicotinamide, and incubated at 37° C. in a humidified atmosphere of 5% CO2 in air. The cultures were topped up once or twice a week with the same volume of fresh medium containing growth factors with or without nicotinamide. Eventually cultures can be supplemented once or several times a week with IL-2 and or IL-2 and IL-15. To estimate the number of cells in culture, cell samples were stained with trypan blue for counting. At various time points, samples were taken for FACS analysis to assay the relative fractions of NK cells, CD56+CD3−, CD56+CD3+, CD34+CD56+, CD56+CD16+ and/or CD56+ NKG2A cells.\nIn order to calculate the number of NK cells on day 0, the total number of cells seeded on day 0 was multiplied by the percent of CD56+/CD3− cells measured by the FACS on day 0.\nTo determine total number of cells on day 7, 14 and 21, the cell count/ml was multiplied by the volume of the culture medium. In order to determine the number of NK cells in culture, the total number of cells in culture was multiplied by the percent of CD56+/CD3− cells measured with the FACS on days 7, 14 or 21. To measure fold expansion, total number of NK cells on days 7, 14 and 21 was divided by total number of NK cells seeded in culture on day-0."}, "[2]": {"tested_on": "purified cord-blood derived CD56+ cells", "test": "Inhibitory CD56+NKG2A cell fraction in cultured cord blood CD56+ cells (FACS)", "assay_type": "cell-based, human", "conditions": "1, 2.5 and 5 mM nicotinamide, 3 weeks culture", "experimental": "as §1, with “Eventually cultures can be supplemented once or several times a week with IL-2 and or IL-2 and IL-15. To estimate the number of cells in culture, cell samples were stained with trypan blue for counting. At various time points, samples were taken for FACS analysis to assay the relative fractions of NK cells, CD56+CD3−, CD56+CD3+, CD34+CD56+, CD56+CD16+ and/or CD56+ NKG2A cells.” left out\nThe cells were washed with a PBS solution containing 1% BSA, and stained (at 4° C. for 30 min) with fluorescein isothiocyanate (FITC)- or phycoerythrin (PE)-conjugated antibodies or allophycocyanin (APC). The cells were then washed in the above buffer and analyzed using a FACScalibur® flow cytometer (Becton Dickinson, San Jose, Calif., USA). […] Emission of 10^4 cells was measured using logarithmic amplification, and analyzed using the CellQuest software (Becton Dickinson). Cells stained with FITC, PE and APC-conjugated isotype control antibodies were used to determine background fluorescence. […]"}, "[3]": {"tested_on": "irradiated NOD/SCID mice", "test": "In-vivo homing and engraftment of cultured human NK cells", "conditions": "4 days post infusion", "experimental": "NK cells were expanded with or without 2.5 mM or 5.0 mM nicotinamide, as described above. After 2-3 weeks in culture, similar numbers (15×10^6) of cells were infused into irradiated (350 Rad) NOD/SCID mice. Mice were sacrificed 4-days post infusion. Spleen, bone marrow and peripheral blood were analyzed for the homing and engraftment of human NK (CD45+CD56+) cells using […], in order to distinguish them from endogenous cells. Engraftment is expressed as the % of NK cells having the transplanted lineage (CD45+CD56+) using anti-human specific antibodies from the total number of mouse endogenous cells identified in the tissue.\nIrradiated (350 Rad) NOD/SCID mice received 15×10^6 cells from human peripheral blood NK (T-cell depleted) cultures maintained for up to 3 weeks with (NAM 2.5 mM and NAM 5 mM) or without (NAM 0) nicotinamide. Upon sacrifice of the mice 4 days post infusion, samples of spleen, bone marrow and peripheral blood were evaluated by FACS for the presence of human NK cells (CD56+CD45+) using human specific Abs."}},
  "data": [
    {"compound": "NC(=O)c1cccnc1", "note": "[nicotinamide]", "values": [
      {"measurement": "NK cell proliferation relative to growth factors (cytokines) alone", "setting": "[1]; 0.5 mM to 5 mM nicotinamide, three weeks culture", "result": "up to 2.5 times"},
      {"measurement": "proliferation of NK cells relative to growth factors (cytokines) alone", "setting": "[1]; 2.5 mM nicotinamide, IL-2 and IL-15", "result": "greater than 4 times"},
      {"measurement": "proliferation of NK cells relative to growth factors (cytokines) alone", "setting": "[1]; 5 mM nicotinamide, compared with 2.5 mM", "result": "even greater"},
      {"measurement": "expansion of cord blood CD56+ NK cultures vs cytokine-only controls", "setting": "[1]; 1 to 7.5 mM nicotinamide, up to 3 weeks, Flt-3, IL-2 and IL-15", "result": "dose-dependent increase in the expansion"},
      {"measurement": "proliferation of NK cells", "setting": "[1]; all concentrations tested, as early as 14 days of culture", "result": "significantly enhanced proliferation"},
      {"measurement": "prevalence of the inhibitory CD56+NKG2A cell fraction among NK cells", "setting": "[2]", "result": "significant and dose dependent reduction"},
      {"measurement": "localization and engraftment, higher vs lower nicotinamide concentration", "setting": "[3]; 5 mM compared with 2.5 mM", "result": "stronger effect"},
      {"measurement": "localization and engraftment of human NK cells (CD56+CD45+) in spleen, bone marrow and peripheral blood", "setting": "[3]; 15x10^6 cells cultured with 2.5 mM or 5 mM nicotinamide", "result": "increased localization and engraftment"}
    ]}
  ]
}
